Assays:
Assay type in all cases: cell-based
[1] = test system: PLC/PRF/5 (human liver cancer); assay: cells; conditions: Table 4; PLC/PRF/5 human liver cancer cells; read-out: IC50 (nM) PLC/PRF/5
[2] = test system: A2780Cis (cisplatin-resistant human ovarian cancer); assay: In vitro cytotoxicity, SRB assay, A2780Cis; conditions: for IC50: Homo sapiens, A2780cis, read-out: IC50 (nM) A2780Cis
[3] = test system: MV-4-11 (human biphenotypic leukaemia); assay: In vitro cytotoxicity, MTT assay, MV-4-11; conditions: for IC50: Homo sapiens, MV4-11, read-out: IC50 (nM) MV4-11
[4] = test system: MIA PaCa-2 (human pancreatic cancer); assay: cells; conditions: Table 4; MIA PaCa-2 human pancreatic cancer cells; read-out: IC50 (nM) MIA PaCa-2
Hs294T (human melanoma) = assay: cells; conditions: Hs 294T; Table 4; Hs294T human melanoma cells; read-out: IC50 (nM) Hs294T
[5] = test system: BALB/3T3 (normal mouse fibroblasts); assay: In vitro cytotoxicity, SRB assay, normal BALB/3T3 fibroblasts; conditions: Table 5; BALB/3T3 normal mouse fibroblasts; read-out: IC50 (nM) BALB3T3 normal cells

SMILES | IC50 [1] | IC50 [2] | IC50 [3] | IC50 [4] | IC50 (Hs294T (human melanoma)) | SI A2780Cis [2] | SI MV4-11 [3] | IC50 [5]
CC[C@@H](C(=O)[C@@H](C)[C@@H](O)[C@H](C)[C@@H]1O[C@@H]([C@@H](CC)C(=O)O)CC[C@@H]1C)[C@H]1O[C@]2(C=C[C@@H](NC(=O)C(=O)NCCCn3ccnc3)[C@]3(CC[C@@](C)([C@H]4CC[C@](O)(CC)[C@H](C)O4)O3)O2)[C@H](C)C[C@@H]1C [FLC-00392-1•Na] | 8330 nM | 3750 nM | 1960 nM |  |  |  |  | 
CCCCCCCCCCCCCCCCOC(=O)N[C@@H]1C=C[C@]2(O[C@H]([C@@H](CC)C(=O)[C@@H](C)[C@@H](O)[C@H](C)[C@@H]3O[C@@H]([C@@H](CC)C(=O)O)CC[C@@H]3C)[C@@H](C)C[C@H]2C)O[C@@]12CC[C@@](C)([C@H]1CC[C@](O)(CC)[C@H](C)O1)O2 [FLC-00410-1•Na] |  | 7700 nM | 3740 nM |  |  |  |  | 
CC[C@@H](C(=O)[C@@H](C)[C@@H](O)[C@H](C)[C@@H]1O[C@@H]([C@@H](CC)C(=O)O)CC[C@@H]1C)[C@H]1O[C@]2(C=C[C@@H](NC(=O)C(=O)NCCO)[C@]3(CC[C@@](C)([C@H]4CC[C@](O)(CC)[C@H](C)O4)O3)O2)[C@H](C)C[C@@H]1C [FLC-00438-1•Na] | 7280 nM | 2900 nM | 2500 nM | 6460 nM |  |  |  | 
CC[C@@H](C(=O)[C@@H](C)[C@@H](O)[C@H](C)[C@@H]1O[C@@H]([C@@H](CC)C(=O)O)CC[C@@H]1C)[C@H]1O[C@]2(C=C[C@@H](NC(=O)C(=O)NCCN)[C@]3(CC[C@@](C)([C@H]4CC[C@](O)(CC)[C@H](C)O4)O3)O2)[C@H](C)C[C@@H]1C [FLC-00456-1•Na] | 7290 nM | 2850 nM | 3430 nM |  | 8690 nM |  |  | 
CC[C@@H](C(=O)[C@@H](C)[C@@H](O)[C@H](C)[C@@H]1O[C@@H]([C@@H](CC)C(=O)O)CC[C@@H]1C)[C@H]1O[C@]2(C=C[C@@H](NC(=O)C(=O)NCCN3CCOCC3)[C@]3(CC[C@@](C)([C@H]4CC[C@](O)(CC)[C@H](C)O4)O3)O2)[C@H](C)C[C@@H]1C [FLC-00465-1•Na] |  | 3070 nM | 3170 nM |  |  |  |  | 
CC[C@@H](C(=O)[C@@H](C)[C@@H](O)[C@H](C)[C@@H]1O[C@@H]([C@@H](CC)C(=O)O)CC[C@@H]1C)[C@H]1O[C@]2(C=C[C@@H](NC(=O)C(=O)NCCN(C)C)[C@]3(CC[C@@](C)([C@H]4CC[C@](O)(CC)[C@H](C)O4)O3)O2)[C@H](C)C[C@@H]1C [FLC-00471-1•Na] |  | 4290 nM | 4730 nM |  |  |  |  | 
CC[C@@H](C(=O)[C@@H](C)[C@@H](O)[C@H](C)[C@@H]1O[C@@H]([C@@H](CC)C(=O)O)CC[C@@H]1C)[C@H]1O[C@]2(C=C[C@@H](NC(=O)C(=O)NCc3ccccc3Cl)[C@]3(CC[C@@](C)([C@H]4CC[C@](O)(CC)[C@H](C)O4)O3)O2)[C@H](C)C[C@@H]1C [FLC-00477-1•Na] |  | 3.54 nM | 3.11 nM |  |  | 40.4 | 46.1 | 143 nM
CC[C@@H](C(=O)[C@@H](C)[C@@H](O)[C@H](C)[C@@H]1O[C@@H]([C@@H](CC)C(=O)O)CC[C@@H]1C)[C@H]1O[C@]2(C=C[C@@H](NC(=O)C(=O)NCc3ccccn3)[C@]3(CC[C@@](C)([C@H]4CC[C@](O)(CC)[C@H](C)O4)O3)O2)[C@H](C)C[C@@H]1C [FLC-00478-1•Na] |  | 63.6 nM | 180 nM |  |  | 25.9 | 9.2 | 1650 nM
CC[C@@H](C(=O)[C@@H](C)[C@@H](O)[C@H](C)[C@@H]1O[C@@H]([C@@H](CC)C(=O)O)CC[C@@H]1C)[C@H]1O[C@]2(C=C[C@@H](NC(=O)C(=O)NCc3cccnc3)[C@]3(CC[C@@](C)([C@H]4CC[C@](O)(CC)[C@H](C)O4)O3)O2)[C@H](C)C[C@@H]1C [FLC-00479-1•Na] |  | 272 nM | 343 nM |  |  | 15.8 | 12.6 | 4300 nM
CC[C@@H](C(=O)[C@@H](C)[C@@H](O)[C@H](C)[C@@H]1O[C@@H]([C@@H](CC)C(=O)O)CC[C@@H]1C)[C@H]1O[C@]2(C=C[C@@H](NC(=O)OCCOC(C)(C)C)[C@]3(CC[C@@](C)([C@H]4CC[C@](O)(CC)[C@H](C)O4)O3)O2)[C@H](C)C[C@@H]1C [FLC-00480-1•Na] |  | 4.25 nM | 19.1 nM |  |  | 43.6 | 9.7 | 185 nM
CC[C@@H](C(=O)[C@@H](C)[C@@H](O)[C@H](C)[C@@H]1O[C@@H]([C@@H](CC)C(=O)O)CC[C@@H]1C)[C@H]1O[C@]2(C=C[C@@H](NC(=O)OCCOCCOCCOCCOC)[C@]3(CC[C@@](C)([C@H]4CC[C@](O)(CC)[C@H](C)O4)O3)O2)[C@H](C)C[C@@H]1C [FLC-00481-1•Na] |  | 220 nM | 320 nM |  |  | 17.4 | 12.0 | 3830 nM
CC[C@@H](C(=O)[C@@H](C)[C@@H](O)[C@H](C)[C@@H]1O[C@@H]([C@@H](CC)C(=O)O)CC[C@@H]1C)[C@H]1O[C@]2(C=C[C@@H](NC(=O)OCCS(C)(=O)=O)[C@]3(CC[C@@](C)([C@H]4CC[C@](O)(CC)[C@H](C)O4)O3)O2)[C@H](C)C[C@@H]1C [FLC-00483-1•Na] |  | 250 nM | 339 nM |  |  | 21.2 | 15.7 | 5310 nM
CC[C@@H](C(=O)[C@@H](C)[C@@H](O)[C@H](C)[C@@H]1O[C@@H]([C@@H](CC)C(=O)O)CC[C@@H]1C)[C@H]1O[C@]2(C=C[C@@H](NC(=O)OCc3ccccc3Cl)[C@]3(CC[C@@](C)([C@H]4CC[C@](O)(CC)[C@H](C)O4)O3)O2)[C@H](C)C[C@@H]1C [FLC-00484-1•Na] |  | 0.25 nM | 0.59 nM |  |  | 95.4 | 40.7 | 23.9 nM
CC[C@@H](C(=O)[C@@H](C)[C@@H](O)[C@H](C)[C@@H]1O[C@@H]([C@@H](CC)C(=O)O)CC[C@@H]1C)[C@H]1O[C@]2(C=C[C@@H](NC(=O)OCc3cc(Cl)cc(Cl)c3)[C@]3(CC[C@@](C)([C@H]4CC[C@](O)(CC)[C@H](C)O4)O3)O2)[C@H](C)C[C@@H]1C [FLC-00485-1•Na] |  | 4.62 nM | 20 nM |  |  | 23.0 | 5.3 | 106 nM
CC[C@@H](C(=O)[C@@H](C)[C@@H](O)[C@H](C)[C@@H]1O[C@@H]([C@@H](CC)C(=O)O)CC[C@@H]1C)[C@H]1O[C@]2(C=C[C@@H](NC(=O)c3ccncc3)[C@]3(CC[C@@](C)([C@H]4CC[C@](O)(CC)[C@H](C)O4)O3)O2)[C@H](C)C[C@@H]1C [FLC-00487-1•Na] |  | 45.9 nM | 133 nM |  |  | 79.6 | 27.5 | 3650 nM
CC[C@@H](C(=O)[C@@H](C)[C@@H](O)[C@H](C)[C@@H]1O[C@@H]([C@@H](CC)C(=O)O)CC[C@@H]1C)[C@H]1O[C@]2(C=C[C@@H](NC(=O)C(=O)NCc3ccncc3)[C@]3(CC[C@@](C)([C@H]4CC[C@](O)(CC)[C@H](C)O4)O3)O2)[C@H](C)C[C@@H]1C [FLC-00489-1•Na] |  | 175 nM | 338 nM |  |  | 28.0 | 14.6 | 4920 nM
CC[C@@H](C(=O)[C@@H](C)[C@@H](O)[C@H](C)[C@@H]1O[C@@H]([C@@H](CC)C(=O)O)CC[C@@H]1C)[C@H]1O[C@]2(C=C[C@@H](NC(=O)C(Cl)Cl)[C@]3(CC[C@@](C)([C@H]4CC[C@](O)(CC)[C@H](C)O4)O3)O2)[C@H](C)C[C@@H]1C [FLC-00493-1•Na] |  | 2.14 nM | 5.43 nM |  |  | 26.9 | 10.6 | 57.7 nM
CC[C@@H](C(=O)[C@@H](C)[C@@H](O)[C@H](C)[C@@H]1O[C@@H]([C@@H](CC)C(=O)O)CC[C@@H]1C)[C@H]1O[C@]2(C=C[C@@H](NC(=O)OCCN(C)C)[C@]3(CC[C@@](C)([C@H]4CC[C@](O)(CC)[C@H](C)O4)O3)O2)[C@H](C)C[C@@H]1C [FLC-00497-1•Na] |  | 278 nM | 278 nM |  |  | 8.2 | 8.2 | 2280 nM
CC[C@@H](C(=O)[C@@H](C)[C@@H](O)[C@H](C)[C@@H]1O[C@@H]([C@@H](CC)C(=O)O)CC[C@@H]1C)[C@H]1O[C@]2(C=C[C@@H](NC(=O)N3CCN(CC)C(=O)C3=O)[C@]3(CC[C@@](C)([C@H]4CC[C@](O)(CC)[C@H](C)O4)O3)O2)[C@H](C)C[C@@H]1C [FLC-00518-1•Na] |  | 3220 nM | 3490 nM |  |  |  |  | 
CC[C@@H](C(=O)[C@@H](C)[C@@H](O)[C@H](C)[C@@H]1O[C@@H]([C@@H](CC)C(=O)O)CC[C@@H]1C)[C@H]1O[C@]2(C=C[C@@H](NC(=O)NCCCN(C)C)[C@]3(CC[C@@](C)([C@H]4CC[C@](O)(CC)[C@H](C)O4)O3)O2)[C@H](C)C[C@@H]1C [FLC-00562-1•Na] |  | 3010 nM | 3070 nM |  |  |  |  | 
CC[C@@H](C(=O)[C@@H](C)[C@@H](O)[C@H](C)[C@@H]1O[C@@H]([C@@H](CC)C(=O)O)CC[C@@H]1C)[C@H]1O[C@]2(C=C[C@@H](NC(=O)N(C)CCCN(C)C)[C@]3(CC[C@@](C)([C@H]4CC[C@](O)(CC)[C@H](C)O4)O3)O2)[C@H](C)C[C@@H]1C [FLC-00563-1•Na] |  | 3120 nM | 3250 nM |  |  |  |  | 
CC[C@@H](C(=O)[C@@H](C)[C@@H](O)[C@H](C)[C@@H]1O[C@@H]([C@@H](CC)C(=O)O)CC[C@@H]1C)[C@H]1O[C@]2(C=C[C@@H](NC(=O)c3cc(OC)c(OC)c(OC)c3)[C@]3(CC[C@@](C)([C@H]4CC[C@](O)(CC)[C@H](C)O4)O3)O2)[C@H](C)C[C@@H]1C [FLC-00573-1•Na] |  |  | 158 nM |  |  |  |  | 1880 nM
